Measurements as given in patent US9200051B2, “Peptide compound” (TAKEDA PHARMACEUTICAL COMPANY LIMITED, priority 2013, dated 2015).
Square brackets hold non-standard residues; d marks the D form. Peptide text beside a SMILES is read from it. αMeF = C[C@](N)(Cc1ccccc1)C(=O)O; 4Pal = N[C@@H](Cc1ccncc1)C(=O)O; Cha = N[C@@H](CC1CCCCC1)C(=O)O; Aib = CC(C)(N)C(=O)O

Key:
Format in all cases: cell-based
[1] = biological target: T1, human glucagon R (Homo sapiens, UniProt P47871); test: Agonist activity against human glucagon R, CRE-luciferase reporter assay in hGlucagonR/CRE-LUC/CHO-K1 cells
T1 construct: expressed in transfected cells; host or cells: CHO-K1 (CRE-LUC/CHO-K1), plasmid hGlucagonR/pMSRα-neo
From the text: (§1) Evaluation of agonist activity against human GIPR, human GLP-1R and human glucagon R using rise in intracellular cAMP concentration as index
(§2) The luciferase reporter gene having an upstream cAMP response sequence was introduced to CHO-K1 cells to construct CRE-LUC/CHO-K1 cells.
The human glucagon R gene having a sequence identical to the sequence of GenBank Accession No. NM_000160 was cloned into pMSRα-neo vector to prepare hGlucagonR/pMSRα-neo.
The plasmid hGlucagonR/pMSRα-neo obtained in (7) was introduced to the CRE-LUC/CHO-K1 cells obtained in (2) to obtain transformants. Next, a cell line induced to express luciferase, i.e., hGlucagonR/CRE-LUC/CHO-K1 cells, were selected from the obtained transformants by the addition of glucagon.
(§3) The hGIPR/CRE-LUC/CHO-K1 cells were inoculated at a cell density of 25 μL/well (5×10^4 cells/well) to a 384-well white plate (Corning), and cultured overnight in Ham F12 medium containing 10% fetal bovine serum, 100 U/mL penicillin and 100 μg/mL streptomycin in a CO2 incubator of 37° C. A medium containing a test compound was added at a concentration of 5 μL/well to the cells, and the resultant cells were incubated for 4 hours in a CO2 incubator of 37° C. to give the final concentration of 1 μM. PicaGene LT7.5 (Toyo Ink Co., Ltd.) was added thereto at a concentration of 30 μL/well, and the mixture was shaken with light shielded. After 30 minutes, the luciferase activity was measured using a plate reader Envision (PerkinElmer). The luciferase activity in the presence of 10 nM GIP was defined as 100%, and the luciferase activity from the addition of DMSO instead of the test compound was defined as 0%. The GIPR agonist activity was calculated with a rise in intracellular cAMP concentration as an index.
(§4) The glucagon R agonist activity was assayed in the same way as above using the hGlucagonR/CRE-LUC/CHO-K1 cells. The luciferase activity in the presence of 10 nM glucagon was defined as 100%, and the luciferase activity from the addition of DMSO instead of the test compound was defined as 0%. The glucagon agonist activity was calculated with a rise in intracellular cAMP concentration as an index.

[2] = biological target: T2, human GLP-1R (Homo sapiens, UniProt P43220); test: Agonist activity against human GLP-1R, CRE-luciferase reporter assay in hGLP-1R/CRE-luc/CHO-K1 cells
T2 construct: expressed in transfected cells; host or cells: CHO-K1, plasmids hGLP-1/pIRESneo3 and Cre-luc(Zeo)
From the text: as §1
Four copies of the cAMP response sequence and the Zeocin resistance gene were introduced to pGL3(R2.2)-Basic Vector (Promega) to construct Cre-luc(Zeo) reporter plasmid.
The human GLP-1R gene having a sequence identical to the sequence of GenBank Accession No. NM_002062 was cloned into pIRESneo3 vector to prepare hGLP-1/pIRESneo3.
The Cre-luc(Zeo) obtained in (3) and the plasmid hGLP-1/pIRESneo3 obtained in (5) were introduced to CHO-K1 cells to obtain transformants. Next, a cell line induced to express luciferase, i.e., hGLP-1R/CRE-luc/CHO-K1 cells, were selected from the obtained transformants by the addition of GLP-1.
as §3
as §4, with “The GLP-1R” for “The glucagon R”, “the hGLP-1R/CRE-luc/CHO-K1” for “the hGlucagonR/CRE-LUC/CHO-K1”, “nM GLP-1” for “nM glucagon”, “The GLP-1R” for “The glucagon”

[3] = biological target: T3, human GIPR (Homo sapiens, UniProt P48546); test: Agonist activity against human GIPR, CRE-luciferase reporter assay (rise in intracellular cAMP) in hGIPR/CRE-LUC/CHO-K1 cells
T3 construct: expressed in transfected cells; host or cells: CHO-K1 (CRE-LUC/CHO-K1), plasmid hGIPR/pMSRα-neo
T3 sequence (P48546 22-466): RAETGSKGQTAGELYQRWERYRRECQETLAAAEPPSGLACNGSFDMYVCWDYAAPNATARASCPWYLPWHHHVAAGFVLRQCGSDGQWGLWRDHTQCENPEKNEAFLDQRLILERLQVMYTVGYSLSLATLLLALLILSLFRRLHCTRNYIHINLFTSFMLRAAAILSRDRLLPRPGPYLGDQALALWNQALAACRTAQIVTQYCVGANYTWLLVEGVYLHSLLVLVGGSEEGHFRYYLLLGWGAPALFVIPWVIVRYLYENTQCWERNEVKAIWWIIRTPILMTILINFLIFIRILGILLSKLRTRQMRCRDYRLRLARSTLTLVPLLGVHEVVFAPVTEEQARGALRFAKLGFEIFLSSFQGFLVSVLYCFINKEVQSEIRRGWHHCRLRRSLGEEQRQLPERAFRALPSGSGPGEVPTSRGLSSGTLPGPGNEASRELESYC
From the text: as §1
The human GIPR gene having a sequence identical to the sequence of GenBank Accession No. U39231 was cloned into pMSRα-neo vector to prepare hGIPR/pMSRα-neo.
as §2
The plasmid hGIPR/pMSRα-neo obtained in (1) was introduced to the CRE-LUC/CHO-K1 cells obtained in (2) to obtain transformants. Next, a cell line induced to express luciferase, i.e., hGIPR/CRE-LUC/CHO-K1 cells, were selected from the obtained transformants by the addition of GIP.
as §3

T1 sequence (P47871 26-477): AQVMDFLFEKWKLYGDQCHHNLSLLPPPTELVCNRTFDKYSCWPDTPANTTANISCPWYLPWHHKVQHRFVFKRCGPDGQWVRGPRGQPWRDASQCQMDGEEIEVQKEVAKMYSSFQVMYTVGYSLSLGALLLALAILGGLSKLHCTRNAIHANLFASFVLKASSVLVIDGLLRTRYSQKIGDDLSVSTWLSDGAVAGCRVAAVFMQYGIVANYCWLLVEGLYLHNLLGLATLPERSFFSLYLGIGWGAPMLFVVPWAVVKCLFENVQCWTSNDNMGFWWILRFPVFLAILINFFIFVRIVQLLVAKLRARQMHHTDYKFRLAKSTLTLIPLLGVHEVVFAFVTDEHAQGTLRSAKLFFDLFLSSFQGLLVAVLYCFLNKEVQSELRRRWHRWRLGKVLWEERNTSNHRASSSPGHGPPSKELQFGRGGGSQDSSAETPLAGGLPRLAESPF
T2 sequence (P43220 24-463): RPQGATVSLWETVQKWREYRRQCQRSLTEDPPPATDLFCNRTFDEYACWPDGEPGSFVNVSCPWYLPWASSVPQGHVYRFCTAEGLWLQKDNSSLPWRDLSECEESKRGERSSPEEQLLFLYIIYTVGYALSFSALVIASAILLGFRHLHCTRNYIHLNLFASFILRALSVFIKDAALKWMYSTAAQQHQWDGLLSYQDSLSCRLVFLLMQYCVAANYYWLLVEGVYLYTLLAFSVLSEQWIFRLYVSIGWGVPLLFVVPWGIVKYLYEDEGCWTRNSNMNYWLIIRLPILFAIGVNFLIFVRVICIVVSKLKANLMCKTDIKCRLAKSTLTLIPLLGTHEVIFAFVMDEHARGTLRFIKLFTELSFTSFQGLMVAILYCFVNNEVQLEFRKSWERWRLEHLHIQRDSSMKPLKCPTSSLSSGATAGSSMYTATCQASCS

SMILES | EC50 [1] | EC50 [2] | EC50 [3]
CC(C)C[C@H](NC(=O)[C@H](CC(C)C)NC(=O)[C@H](Cc1c[nH]c2ccccc12)NC(=O)[C@H](CCCCN)NC(=O)[C@@H](NC(=O)[C@H](Cc1ccccc1)NC(=O)[C@H](CCC(=O)O)NC(=O)[C@H](C)NC(=O)[C@H](CCC(N)=O)NC(=O)[C@H](C)NC(=O)[C@H](CCC(N)=O)NC(=O)[C@H](CCCCN)NC(=O)[C@H](CC(=O)O)NC(=O)[C@H](CC(C)C)NC(=O)C(C)(C)NC(=O)[C@H](Cc1ccccc1)NC(=O)C(C)(C)NC(=O)[C@H](Cc1ccc(O)cc1)NC(=O)[C@H](CC(=O)O)NC(=O)[C@H](CO)NC(=O)[C@@H](NC(=O)[C@](C)(Cc1ccccc1)NC(=O)[C@@H](NC(=O)CNC(=O)[C@H](CCC(=O)O)NC(=O)C(C)(C)NC(=O)[C@@H](N)Cc1ccc(O)cc1)[C@@H](C)O)[C@@H](C)O)C(C)C)C(=O)N[C@@H](CCCCN)C(=O)NCC(=O)NCC(=O)N1CCC[C@H]1C(=O)N[C@@H](CO)C(=O)N[C@@H](CO)C(=O)NCC(=O)N[C@@H](C)C(=O)N1CCC[C@H]1C(=O)N1CCC[C@H]1C(=O)N1CCC[C@H]1C(=O)N[C@@H](CO)C(=O)N[C@@H](CCCCN)C(N)=O [Example 11] (H-Y[Aib]EGT[αMeF]TSDY[Aib]F[Aib]LDKQAQAEFVKWLLKGGPSSGAPPPSK-NH2) | > 1000 nM | 0.022 nM | 0.015 nM
CC(C)C[C@H](NC(=O)[C@H](CC(C)C)NC(=O)[C@H](Cc1c[nH]c2ccccc12)NC(=O)[C@H](CCCCN)NC(=O)[C@@H](NC(=O)[C@H](Cc1ccccc1)NC(=O)[C@H](CCC(=O)O)NC(=O)[C@H](C)NC(=O)[C@H](CCC(N)=O)NC(=O)[C@H](C)NC(=O)[C@H](CCC(N)=O)NC(=O)[C@H](CCCCN)NC(=O)[C@H](CC(=O)O)NC(=O)[C@H](CC(C)C)NC(=O)C(C)(C)NC(=O)[C@H](Cc1ccncc1)NC(=O)C(C)(C)NC(=O)[C@H](Cc1ccc(O)cc1)NC(=O)[C@H](CC(=O)O)NC(=O)[C@H](CO)NC(=O)[C@@H](NC(=O)[C@](C)(Cc1ccccc1)NC(=O)[C@@H](NC(=O)CNC(=O)[C@H](CCC(=O)O)NC(=O)C(C)(C)NC(=O)[C@@H](N)Cc1ccc(O)cc1)[C@@H](C)O)[C@@H](C)O)C(C)C)C(=O)N[C@@H](CCCCN)C(=O)NCC(=O)NCC(=O)N1CCC[C@H]1C(=O)N[C@@H](CO)C(=O)N[C@@H](CO)C(=O)NCC(=O)N[C@@H](C)C(=O)N1CCC[C@H]1C(=O)N1CCC[C@H]1C(=O)N1CCC[C@H]1C(=O)N[C@@H](CO)C(=O)N[C@@H](CCCCN)C(N)=O [Example 12] (H-Y[Aib]EGT[αMeF]TSDY[Aib][4Pal][Aib]LDKQAQAEFVKWLLKGGPSSGAPPPSK-NH2) | > 1000 nM | 0.014 nM | 0.0072 nM
CC[C@H](C)[C@H](NC(=O)C(C)(C)NC(=O)[C@H](Cc1ccc(O)cc1)NC(=O)[C@H](CC(=O)O)NC(=O)[C@H](CO)NC(=O)[C@@H](NC(=O)[C@](C)(Cc1ccccc1)NC(=O)[C@@H](NC(=O)CNC(=O)[C@H](CCC(=O)O)NC(=O)C(C)(C)NC(=O)[C@@H](N)Cc1ccc(O)cc1)[C@@H](C)O)[C@@H](C)O)C(=O)N[C@@](C)(Cc1ccccc1)C(=O)N[C@@H](CC(C)C)C(=O)N[C@@H](CC(=O)O)C(=O)N[C@@H](CCCCN)C(=O)N[C@@H](CCC(N)=O)C(=O)N[C@@H](C)C(=O)N[C@@H](CCC(N)=O)C(=O)N[C@@H](C)C(=O)N[C@@H](CCC(=O)O)C(=O)N[C@@H](Cc1ccccc1)C(=O)N[C@H](C(=O)N[C@@H](CCCCN)C(=O)N[C@@H](Cc1c[nH]c2ccccc12)C(=O)N[C@@H](CC(C)C)C(=O)N[C@@H](CC(C)C)C(=O)N[C@@H](CCCCN)C(=O)NCC(=O)NCC(=O)N1CCC[C@H]1C(=O)N[C@@H](CO)C(=O)N[C@@H](CO)C(=O)NCC(=O)N[C@@H](C)C(=O)N1CCC[C@H]1C(=O)N1CCC[C@H]1C(=O)N1CCC[C@H]1C(=O)N[C@@H](CO)C(=O)N[C@@H](CCCCN)C(N)=O)C(C)C [Example 13] (H-Y[Aib]EGT[αMeF]TSDY[Aib]I[αMeF]LDKQAQAEFVKWLLKGGPSSGAPPPSK-NH2) | > 1000 nM | 0.011 nM | 0.0072 nM
CC[C@H](C)[C@H](NC(=O)C(C)(C)NC(=O)[C@H](Cc1ccc(O)cc1)NC(=O)[C@H](CC(=O)O)NC(=O)[C@H](CO)NC(=O)[C@@H](NC(=O)[C@](C)(Cc1ccccc1)NC(=O)[C@@H](NC(=O)CNC(=O)[C@H](CCC(=O)O)NC(=O)C(C)(C)NC(=O)[C@@H](N)Cc1ccc(O)cc1)[C@@H](C)O)[C@@H](C)O)C(=O)N[C@@H](CC1CCCCC1)C(=O)N[C@@H](CC(C)C)C(=O)N[C@@H](CC(=O)O)C(=O)N[C@@H](CCCCN)C(=O)N[C@@H](CCC(N)=O)C(=O)N[C@@H](C)C(=O)N[C@@H](CCC(N)=O)C(=O)N[C@@H](C)C(=O)N[C@@H](CCC(=O)O)C(=O)N[C@@H](Cc1ccccc1)C(=O)N[C@H](C(=O)N[C@@H](CCCCN)C(=O)N[C@@H](Cc1c[nH]c2ccccc12)C(=O)N[C@@H](CC(C)C)C(=O)N[C@@H](CC(C)C)C(=O)N[C@@H](CCCCN)C(=O)NCC(=O)NCC(=O)N1CCC[C@H]1C(=O)N[C@@H](CO)C(=O)N[C@@H](CO)C(=O)NCC(=O)N[C@@H](C)C(=O)N1CCC[C@H]1C(=O)N1CCC[C@H]1C(=O)N1CCC[C@H]1C(=O)N[C@@H](CO)C(=O)N[C@@H](CCCCN)C(N)=O)C(C)C [Example 14] (H-Y[Aib]EGT[αMeF]TSDY[Aib]I[Cha]LDKQAQAEFVKWLLKGGPSSGAPPPSK-NH2) | > 1000 nM | 0.021 nM | 0.013 nM
CC(C)C[C@H](NC(=O)[C@H](CC(C)C)NC(=O)[C@H](Cc1c[nH]c2ccccc12)NC(=O)[C@H](CCCCN)NC(=O)[C@@H](NC(=O)[C@H](Cc1ccccc1)NC(=O)[C@H](CCC(=O)O)NC(=O)[C@H](C)NC(=O)[C@H](CCC(N)=O)NC(=O)[C@H](C)NC(=O)[C@H](CCC(N)=O)NC(=O)[C@H](CCCCN)NC(=O)[C@H](CC(=O)O)NC(=O)[C@H](CC(C)C)NC(=O)[C@](C)(Cc1ccccc1)NC(=O)[C@H](CCCCN)NC(=O)C(C)(C)NC(=O)[C@H](Cc1ccc(O)cc1)NC(=O)[C@H](CC(=O)O)NC(=O)[C@H](CO)NC(=O)[C@@H](NC(=O)[C@](C)(Cc1ccccc1)NC(=O)[C@@H](NC(=O)CNC(=O)[C@H](CCC(=O)O)NC(=O)C(C)(C)NC(=O)[C@@H](N)Cc1ccc(O)cc1)[C@@H](C)O)[C@@H](C)O)C(C)C)C(=O)N[C@@H](CCCCN)C(=O)NCC(=O)NCC(=O)N1CCC[C@H]1C(=O)N[C@@H](CO)C(=O)N[C@@H](CO)C(=O)NCC(=O)N[C@@H](C)C(=O)N1CCC[C@H]1C(=O)N1CCC[C@H]1C(=O)N1CCC[C@H]1C(=O)N[C@@H](CO)C(=O)N[C@@H](CCCCN)C(N)=O [Example 15] (H-Y[Aib]EGT[αMeF]TSDY[Aib]K[αMeF]LDKQAQAEFVKWLLKGGPSSGAPPPSK-NH2) | > 1000 nM | 0.015 nM | 0.013 nM
